Source: ChEMBL document CHEMBL1201862, “PubChem BioAssay data set” (2004)
Calls of active or inactive are those of the source.

Key:
[1] = target: Dual specificity tyrosine-phosphorylation-regulated kinase 4 (Homo sapiens, UniProt Q9NR20); format: functional
[2] = target: Eukaryotic elongation factor 2 kinase (Homo sapiens, UniProt O00418); format: functional
[3] = target: Serine/threonine-protein kinase D2 (Homo sapiens, UniProt Q9BZL6); format: functional;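 note: measured against PRKD2 as one member of a kinome-wide kinase profiling panel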
[4] = target: Lymphokine-activated killer T-cell-originated protein kinase (Homo sapiens, UniProt Q96KB5); format: functional;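 note: value comes from a kinase panel screen in which TOPK was one of the panel members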
[5] = target: Testis-specific serine/threonine-protein kinase 2 (Homo sapiens, UniProt Q96PF2); format: functional;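 note: part of the Navigating the Kinome panel, target entry STK22B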
[6] = target: MAP kinase-activated protein kinase 3 (Homo sapiens, UniProt Q16644); format: functional;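 note: value comes from a kinome-wide profiling panel in which MAPKAPK3 is one of the panel members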
[7] = target: Protein kinase C gamma type (Homo sapiens, UniProt P05129); format: functional
[8] = target: T1, Sentrin-specific protease 8 (Homo sapiens, UniProt Q96LD8); assay: inhibition of sentrin protease 8 – biochemical, luminescence, set 2, SAR follow-up (AID 588601); format: functional
T1 sequence (Q96LD8 whole entry): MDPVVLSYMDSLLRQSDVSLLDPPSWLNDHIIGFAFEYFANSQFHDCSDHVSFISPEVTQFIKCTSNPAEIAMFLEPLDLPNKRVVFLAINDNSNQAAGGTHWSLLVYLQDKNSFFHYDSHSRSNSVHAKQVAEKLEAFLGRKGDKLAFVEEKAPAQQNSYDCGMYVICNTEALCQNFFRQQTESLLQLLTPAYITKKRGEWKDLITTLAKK

Caspase-3 [9] = target: T2, Caspase-3 (Homo sapiens, UniProt P42574); assay: inhibition of recombinant caspase-3 activity – biochemical, luminescence, set 2, selectivity assay for SENP protease inhibitor project, SAR follow-up (AID 588599); format: functional
T2 sequence (P42574 whole entry): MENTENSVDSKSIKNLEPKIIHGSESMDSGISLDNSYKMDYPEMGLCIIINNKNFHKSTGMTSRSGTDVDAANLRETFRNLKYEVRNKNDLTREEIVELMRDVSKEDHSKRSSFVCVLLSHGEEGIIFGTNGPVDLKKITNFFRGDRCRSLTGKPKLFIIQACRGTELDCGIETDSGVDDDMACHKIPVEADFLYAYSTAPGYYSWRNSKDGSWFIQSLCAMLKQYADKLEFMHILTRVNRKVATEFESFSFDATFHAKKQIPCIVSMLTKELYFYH

[10] = target: T3, Sentrin-specific protease 7 (Homo sapiens, UniProt Q9BQF6); assay: inhibition of human SENP7 cleavage activity – biochemical, luminescence, SAR follow-up (AID 504497); format: functional
T3 sequence (Q9BQF6 whole entry): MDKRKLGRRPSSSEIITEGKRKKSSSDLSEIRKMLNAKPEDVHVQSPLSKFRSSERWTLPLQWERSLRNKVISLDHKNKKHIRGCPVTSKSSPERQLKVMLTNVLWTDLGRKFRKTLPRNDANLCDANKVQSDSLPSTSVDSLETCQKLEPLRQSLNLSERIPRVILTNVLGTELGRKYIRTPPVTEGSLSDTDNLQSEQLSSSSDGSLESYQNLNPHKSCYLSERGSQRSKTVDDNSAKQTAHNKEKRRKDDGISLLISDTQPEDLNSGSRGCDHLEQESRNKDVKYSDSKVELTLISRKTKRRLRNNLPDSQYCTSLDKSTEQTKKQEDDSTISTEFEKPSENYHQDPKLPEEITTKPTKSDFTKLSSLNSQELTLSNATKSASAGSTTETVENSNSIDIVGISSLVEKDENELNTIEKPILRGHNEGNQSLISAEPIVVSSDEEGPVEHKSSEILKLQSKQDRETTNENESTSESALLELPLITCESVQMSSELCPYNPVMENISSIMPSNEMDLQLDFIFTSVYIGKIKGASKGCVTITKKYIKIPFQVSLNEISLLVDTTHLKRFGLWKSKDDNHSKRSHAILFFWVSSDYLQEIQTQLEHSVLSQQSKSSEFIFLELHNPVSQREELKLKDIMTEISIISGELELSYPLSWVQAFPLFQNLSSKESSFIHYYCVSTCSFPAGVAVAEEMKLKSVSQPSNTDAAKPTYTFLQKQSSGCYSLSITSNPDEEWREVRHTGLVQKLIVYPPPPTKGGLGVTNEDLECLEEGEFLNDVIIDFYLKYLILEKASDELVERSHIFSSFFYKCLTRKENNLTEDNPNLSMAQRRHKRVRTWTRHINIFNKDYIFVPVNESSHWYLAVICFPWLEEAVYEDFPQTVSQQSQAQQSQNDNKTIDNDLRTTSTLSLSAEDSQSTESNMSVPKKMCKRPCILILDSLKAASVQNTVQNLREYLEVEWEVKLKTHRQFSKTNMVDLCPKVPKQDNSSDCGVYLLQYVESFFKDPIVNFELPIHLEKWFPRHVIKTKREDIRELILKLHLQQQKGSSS

[11] = target: T4, Sentrin-specific protease 6 (Homo sapiens, UniProt Q9GZR1); assay: inhibition of human SENP6 catalytic domain – biochemical, luminescence, set 2, SAR follow-up (AID 588598); format: functional
T4 sequence (Q9GZR1 whole entry): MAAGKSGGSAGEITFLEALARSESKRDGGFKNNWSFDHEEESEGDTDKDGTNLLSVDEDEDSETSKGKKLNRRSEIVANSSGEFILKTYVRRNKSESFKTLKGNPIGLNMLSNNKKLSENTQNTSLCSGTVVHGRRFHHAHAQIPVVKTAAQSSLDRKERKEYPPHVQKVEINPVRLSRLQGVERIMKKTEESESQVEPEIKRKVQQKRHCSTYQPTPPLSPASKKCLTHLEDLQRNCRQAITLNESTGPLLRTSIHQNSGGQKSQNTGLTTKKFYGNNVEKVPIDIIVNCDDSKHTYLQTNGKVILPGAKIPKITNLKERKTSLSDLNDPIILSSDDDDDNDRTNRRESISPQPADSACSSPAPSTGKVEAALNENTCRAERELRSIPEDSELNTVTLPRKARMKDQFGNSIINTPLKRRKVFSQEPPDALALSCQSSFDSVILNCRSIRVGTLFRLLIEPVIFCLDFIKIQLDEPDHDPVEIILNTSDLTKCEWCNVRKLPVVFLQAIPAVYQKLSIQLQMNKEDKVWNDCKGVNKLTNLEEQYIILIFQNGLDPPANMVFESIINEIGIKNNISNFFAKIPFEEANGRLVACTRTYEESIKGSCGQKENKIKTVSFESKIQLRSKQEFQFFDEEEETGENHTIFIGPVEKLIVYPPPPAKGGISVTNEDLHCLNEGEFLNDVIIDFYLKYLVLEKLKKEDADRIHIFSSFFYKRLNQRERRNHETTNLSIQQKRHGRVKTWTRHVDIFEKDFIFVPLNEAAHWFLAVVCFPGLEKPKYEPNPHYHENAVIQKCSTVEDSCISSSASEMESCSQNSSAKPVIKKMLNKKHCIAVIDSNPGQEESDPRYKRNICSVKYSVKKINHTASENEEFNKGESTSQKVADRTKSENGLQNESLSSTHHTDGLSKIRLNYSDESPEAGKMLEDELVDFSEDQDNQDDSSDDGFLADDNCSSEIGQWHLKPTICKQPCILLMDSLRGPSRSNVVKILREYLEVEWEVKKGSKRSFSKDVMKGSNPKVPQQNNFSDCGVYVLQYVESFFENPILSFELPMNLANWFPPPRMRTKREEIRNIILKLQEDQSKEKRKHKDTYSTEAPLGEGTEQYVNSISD

[12] = target: T1, Sentrin-specific protease 8; assay: inhibition of human SENP8 cleavage activity – biochemical, luminescence, SAR follow-up (AID 504501); format: functional
Caspase-3 [13] = target: T2, Caspase-3; assay: SAR Analysis of small molecule inhibitors of Sentrin-specific proteases (SENPs) using a Caspase-3 Selectivity assay. [Related pubchem assays (depositor defined):AID2540, AID2599, AID434973, AID489001]; format: functional
[14] = target: T4, Sentrin-specific protease 6; assay: SAR Analysis of small molecule inhibitors of Sentrin-specific protease 6 (SENP6) using a Luminescent assay. [Related pubchem assays (depositor defined):AID2582, AID2599]; format: functional
[15] = target: T3, Sentrin-specific protease 7; assay: inhibition of human SENP7 cleavage activity – biochemical, luminescence, set 2, SAR follow-up (AID 588600); format: functional
[16] = THP-1 cell cytotoxicity, cytotoxicity control, set 6 (AID 602433); format: functional; details: Mycobacterium tuberculosis
[17] = target: Interleukin-1 receptor-associated kinase 1 (Homo sapiens, UniProt P51617); format: functional;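 note: IRAK1 tested as one member of a kinome panel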
[18] = target: Megakaryocyte-associated tyrosine-protein kinase (Homo sapiens, UniProt P42679); format: functional;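 note: affinity measured as one member of a kinase panel (Navigating the Kinome) against MATK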
[19] = target: Serine/threonine-protein kinase BRSK1 (Homo sapiens, UniProt Q8TDC3); format: functional;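 note: measured within a kinome-wide kinase panel, with the target listed as KIAA1811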
[20] = target: Serine/threonine-protein kinase Chk1 (Homo sapiens, UniProt O14757); format: functional;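 note: measured as one member of a kinome-wide kinase profiling panel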
[21] = target: Serine/threonine-protein kinase pim-1 (Homo sapiens, UniProt P11309); format: functional
[22] = target: Ribosomal protein S6 kinase alpha-3 (Homo sapiens, UniProt P51812); format: functional;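 note: measured within a kinome-wide profiling panel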
[23] = target: T5, Ubiquitin-conjugating enzyme E2 N (Homo sapiens, UniProt P61088); format: functional
T5 sequence (P61088 whole entry): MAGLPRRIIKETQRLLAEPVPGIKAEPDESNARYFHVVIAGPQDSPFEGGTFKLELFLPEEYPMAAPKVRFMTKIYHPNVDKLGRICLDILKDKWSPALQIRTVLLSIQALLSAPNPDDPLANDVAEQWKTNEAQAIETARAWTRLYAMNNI

[24] = test system: Streptococcus sp. 'group A'; assay: Streptococcus pyogenes SK(-)GAS viability under kanamycin – luminescence, BacTiterGlo, confirmation, counter-screen for streptokinase expression inhibitor project, dose response (AID 1900); format: functional, organism-based
Apelin receptor = Apelin receptor (Homo sapiens, UniProt P35414); assay: apelin receptor antagonists, arrestin read-out – cell-based, luminescent, enzyme-fragment complementation, selectivity assay for CCR6 antagonist project, SAR follow-up (AID 588359); format: functional
[25] = target: T5, Ubiquitin-conjugating enzyme E2 N; format: functional; remark: listed apart in the source
[26] = target: C-C chemokine receptor type 6 (Homo sapiens, UniProt P51684); assay: analog antagonism of CCR6 beta-arrestin signaling – cell-based, luminescent beta-arrestin readout, SAR follow-up (AID 540334); format: functional
[27] = target: Voltage-gated inwardly rectifying potassium channel KCNH2 (Homo sapiens, UniProt Q12809); details: Potency;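 note: confirmatory quantitative high-throughput screen measuring inhibition of hERG channel activity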
Streptococcus = assay: GAS UMAA2166 growth inhibition – luminescence, BacTiterGlo, counter-screen for streptokinase expression inhibitor project, dose response (AID 1915); format: functional, organism-based;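 note: potency for reduction of bacterial viability or growth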
Streptokinase A = target: T6, Streptokinase A (Streptococcus pyogenes serotype M1, UniProt P10520); assay: viability-normalized secreted streptokinase activity reduction – plasminogen activation absorbance, OD405, dose response (AID 1914); format: functional, Streptococcus pyogenes M1 GAS;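 note: secreted streptokinase activity via plasminogen activation per viability signal from cell pellet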
T6 sequence (P10520 whole entry): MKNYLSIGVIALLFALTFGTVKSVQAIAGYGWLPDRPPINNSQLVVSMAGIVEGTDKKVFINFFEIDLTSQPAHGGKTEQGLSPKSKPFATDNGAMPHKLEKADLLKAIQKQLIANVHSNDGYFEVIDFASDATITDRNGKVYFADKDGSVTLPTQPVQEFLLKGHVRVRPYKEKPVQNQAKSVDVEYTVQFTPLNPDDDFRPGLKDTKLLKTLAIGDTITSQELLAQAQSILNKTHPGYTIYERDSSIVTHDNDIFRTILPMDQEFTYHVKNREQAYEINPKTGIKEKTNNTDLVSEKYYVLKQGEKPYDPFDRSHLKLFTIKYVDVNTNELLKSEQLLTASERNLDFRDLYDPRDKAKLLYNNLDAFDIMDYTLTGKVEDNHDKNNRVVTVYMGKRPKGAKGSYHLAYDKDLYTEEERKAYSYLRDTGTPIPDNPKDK

Bcl-2-related protein A1 = target: T7, Bcl-2-related protein A1 (Mus musculus, UniProt Q07440); format: functional;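 note: confirmatory dose–response counterscreen on Bfl-1, used to check hits from a UBC13 polyubiquitin inhibitor campaign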
T7 sequence (Q07440 whole entry): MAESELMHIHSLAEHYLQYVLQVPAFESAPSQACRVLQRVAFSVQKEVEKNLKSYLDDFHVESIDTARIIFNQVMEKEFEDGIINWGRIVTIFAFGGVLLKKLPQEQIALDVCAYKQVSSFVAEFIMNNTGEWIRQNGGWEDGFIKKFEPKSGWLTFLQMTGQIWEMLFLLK

[28] = target: C-X-C chemokine receptor type 5 (Homo sapiens, UniProt P32302); assay: inhibition of CXCL13-driven CXCR5 beta-arrestin recruitment – cell-based, luminescence, CHO-K1 PathHunter, selectivity assay for CCR6 antagonist project, SAR follow-up (AID 540340); format: functional

Eukaryotic elongation factor 2 kinase, sequence (O00418 whole entry): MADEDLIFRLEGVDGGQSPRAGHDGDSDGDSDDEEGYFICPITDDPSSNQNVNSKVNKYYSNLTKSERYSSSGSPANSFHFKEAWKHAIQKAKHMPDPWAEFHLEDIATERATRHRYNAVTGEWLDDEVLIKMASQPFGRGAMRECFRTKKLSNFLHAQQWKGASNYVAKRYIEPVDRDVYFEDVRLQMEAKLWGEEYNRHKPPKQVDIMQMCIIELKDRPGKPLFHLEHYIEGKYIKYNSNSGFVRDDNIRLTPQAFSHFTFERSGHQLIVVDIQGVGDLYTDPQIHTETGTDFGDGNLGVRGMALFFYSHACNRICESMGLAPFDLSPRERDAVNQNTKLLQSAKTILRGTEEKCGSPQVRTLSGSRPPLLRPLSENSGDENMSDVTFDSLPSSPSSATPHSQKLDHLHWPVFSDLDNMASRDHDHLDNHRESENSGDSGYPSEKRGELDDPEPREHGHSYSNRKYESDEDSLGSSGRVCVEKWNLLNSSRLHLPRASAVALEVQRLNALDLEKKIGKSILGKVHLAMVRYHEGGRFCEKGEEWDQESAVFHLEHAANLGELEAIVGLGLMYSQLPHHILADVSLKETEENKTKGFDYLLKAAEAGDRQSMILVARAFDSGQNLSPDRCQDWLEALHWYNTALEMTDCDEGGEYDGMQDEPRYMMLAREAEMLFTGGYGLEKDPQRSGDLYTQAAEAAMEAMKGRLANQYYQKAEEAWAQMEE
Interleukin-1 receptor-associated kinase 1, sequence (P51617 whole entry): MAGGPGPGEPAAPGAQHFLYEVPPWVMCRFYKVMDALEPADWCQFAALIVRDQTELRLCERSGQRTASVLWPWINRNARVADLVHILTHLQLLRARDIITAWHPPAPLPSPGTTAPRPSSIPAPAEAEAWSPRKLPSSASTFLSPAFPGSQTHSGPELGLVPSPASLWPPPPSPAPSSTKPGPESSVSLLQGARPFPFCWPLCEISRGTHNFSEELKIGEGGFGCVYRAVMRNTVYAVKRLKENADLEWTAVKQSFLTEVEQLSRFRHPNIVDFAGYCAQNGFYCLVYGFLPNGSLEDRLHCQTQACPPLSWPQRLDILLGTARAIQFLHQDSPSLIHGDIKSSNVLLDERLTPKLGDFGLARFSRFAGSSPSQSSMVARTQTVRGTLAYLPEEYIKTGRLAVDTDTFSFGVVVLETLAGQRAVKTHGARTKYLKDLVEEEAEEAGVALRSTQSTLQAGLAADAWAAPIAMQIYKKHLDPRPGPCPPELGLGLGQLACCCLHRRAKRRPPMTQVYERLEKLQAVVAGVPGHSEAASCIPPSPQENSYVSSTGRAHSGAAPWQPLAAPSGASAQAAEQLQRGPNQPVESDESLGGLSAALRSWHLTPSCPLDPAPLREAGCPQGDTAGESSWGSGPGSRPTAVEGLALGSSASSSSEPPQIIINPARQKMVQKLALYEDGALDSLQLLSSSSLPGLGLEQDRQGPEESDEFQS
Serine/threonine-protein kinase Chk1, sequence (O14757 whole entry): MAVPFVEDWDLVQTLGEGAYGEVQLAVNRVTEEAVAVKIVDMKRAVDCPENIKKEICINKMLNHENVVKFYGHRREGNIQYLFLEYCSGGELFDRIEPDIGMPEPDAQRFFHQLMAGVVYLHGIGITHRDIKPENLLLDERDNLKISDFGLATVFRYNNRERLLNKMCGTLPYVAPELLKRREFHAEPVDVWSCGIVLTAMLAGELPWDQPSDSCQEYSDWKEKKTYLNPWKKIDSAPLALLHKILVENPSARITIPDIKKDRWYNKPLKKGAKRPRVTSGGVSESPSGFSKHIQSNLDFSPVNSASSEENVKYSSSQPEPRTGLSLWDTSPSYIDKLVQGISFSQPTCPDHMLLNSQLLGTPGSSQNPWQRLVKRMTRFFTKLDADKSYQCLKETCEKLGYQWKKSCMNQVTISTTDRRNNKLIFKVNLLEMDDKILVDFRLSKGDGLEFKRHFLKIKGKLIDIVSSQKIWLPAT
Dual specificity tyrosine-phosphorylation-regulated kinase 4, sequence (Q9NR20 whole entry): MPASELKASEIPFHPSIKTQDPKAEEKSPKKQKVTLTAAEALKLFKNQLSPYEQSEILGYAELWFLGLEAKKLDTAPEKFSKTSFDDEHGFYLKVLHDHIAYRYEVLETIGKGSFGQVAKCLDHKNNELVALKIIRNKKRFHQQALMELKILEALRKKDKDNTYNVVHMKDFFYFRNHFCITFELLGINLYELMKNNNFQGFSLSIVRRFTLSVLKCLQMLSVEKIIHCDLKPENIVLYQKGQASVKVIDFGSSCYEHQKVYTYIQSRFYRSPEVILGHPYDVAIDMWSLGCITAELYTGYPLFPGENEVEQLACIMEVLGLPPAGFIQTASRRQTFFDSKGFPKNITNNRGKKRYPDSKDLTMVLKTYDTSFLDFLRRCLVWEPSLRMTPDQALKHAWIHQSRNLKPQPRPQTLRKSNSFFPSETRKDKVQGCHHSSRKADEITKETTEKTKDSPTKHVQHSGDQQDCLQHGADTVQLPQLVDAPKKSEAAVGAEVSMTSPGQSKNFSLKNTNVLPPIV
Serine/threonine-protein kinase BRSK1, sequence (Q8TDC3 whole entry): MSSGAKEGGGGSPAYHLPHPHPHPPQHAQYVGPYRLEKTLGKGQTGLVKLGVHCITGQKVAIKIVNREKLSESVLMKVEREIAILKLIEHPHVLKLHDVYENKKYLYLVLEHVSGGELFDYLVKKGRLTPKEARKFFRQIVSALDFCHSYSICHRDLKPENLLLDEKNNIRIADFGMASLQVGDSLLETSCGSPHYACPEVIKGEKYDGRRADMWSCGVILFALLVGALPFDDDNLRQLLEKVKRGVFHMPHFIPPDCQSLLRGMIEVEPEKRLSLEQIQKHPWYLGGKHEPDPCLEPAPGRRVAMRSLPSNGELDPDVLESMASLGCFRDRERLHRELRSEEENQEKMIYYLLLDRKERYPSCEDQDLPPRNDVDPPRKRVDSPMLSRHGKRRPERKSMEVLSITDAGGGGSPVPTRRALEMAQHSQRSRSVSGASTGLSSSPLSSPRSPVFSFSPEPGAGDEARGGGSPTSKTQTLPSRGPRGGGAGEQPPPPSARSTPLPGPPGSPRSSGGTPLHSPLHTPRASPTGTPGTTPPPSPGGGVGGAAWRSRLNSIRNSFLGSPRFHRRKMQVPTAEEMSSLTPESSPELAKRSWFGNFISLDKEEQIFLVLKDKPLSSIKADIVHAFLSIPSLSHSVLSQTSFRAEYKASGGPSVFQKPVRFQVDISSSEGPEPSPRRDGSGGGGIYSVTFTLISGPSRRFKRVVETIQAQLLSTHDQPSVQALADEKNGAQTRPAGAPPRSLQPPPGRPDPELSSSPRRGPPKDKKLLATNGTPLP
Voltage-gated inwardly rectifying potassium channel KCNH2, sequence (Q12809 whole entry): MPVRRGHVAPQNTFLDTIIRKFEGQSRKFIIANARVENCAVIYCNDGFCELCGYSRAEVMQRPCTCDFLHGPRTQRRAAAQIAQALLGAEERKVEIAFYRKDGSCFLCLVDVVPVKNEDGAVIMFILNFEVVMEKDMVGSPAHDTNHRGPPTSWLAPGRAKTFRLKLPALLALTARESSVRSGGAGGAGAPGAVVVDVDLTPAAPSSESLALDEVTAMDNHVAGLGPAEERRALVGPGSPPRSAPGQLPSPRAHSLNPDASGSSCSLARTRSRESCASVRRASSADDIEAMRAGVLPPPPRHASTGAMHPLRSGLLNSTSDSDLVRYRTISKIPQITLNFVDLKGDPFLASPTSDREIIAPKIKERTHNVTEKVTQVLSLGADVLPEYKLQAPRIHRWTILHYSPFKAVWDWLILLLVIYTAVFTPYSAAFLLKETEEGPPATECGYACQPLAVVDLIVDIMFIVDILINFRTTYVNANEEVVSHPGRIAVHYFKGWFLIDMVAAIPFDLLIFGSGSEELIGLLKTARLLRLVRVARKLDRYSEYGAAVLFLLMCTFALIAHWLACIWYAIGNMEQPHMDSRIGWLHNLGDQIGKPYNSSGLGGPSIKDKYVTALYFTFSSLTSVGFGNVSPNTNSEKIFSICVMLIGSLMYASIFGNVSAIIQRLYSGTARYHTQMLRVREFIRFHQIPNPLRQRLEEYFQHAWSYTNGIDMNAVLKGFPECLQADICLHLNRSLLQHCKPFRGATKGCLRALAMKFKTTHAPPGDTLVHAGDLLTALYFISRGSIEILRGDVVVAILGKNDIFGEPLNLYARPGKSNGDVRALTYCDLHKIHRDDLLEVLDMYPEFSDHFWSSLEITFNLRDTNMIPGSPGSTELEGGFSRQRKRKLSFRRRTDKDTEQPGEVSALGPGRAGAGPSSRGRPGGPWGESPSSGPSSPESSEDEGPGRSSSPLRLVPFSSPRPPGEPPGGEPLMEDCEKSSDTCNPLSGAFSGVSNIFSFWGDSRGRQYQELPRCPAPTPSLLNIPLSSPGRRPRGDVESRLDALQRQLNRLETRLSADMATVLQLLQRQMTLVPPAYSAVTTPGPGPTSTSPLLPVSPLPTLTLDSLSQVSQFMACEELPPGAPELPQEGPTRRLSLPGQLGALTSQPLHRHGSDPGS

With `CCN(CC)CCNC(=O)c1c(C)[nH]c(C=C2C(=O)Nc3ccc(F)cc32)c1C` the Ki [1] was > 7.94 µM (inactive), the Ki [2] was > 3.98 µM (inactive) and the Ki [3] was 398 nM (active). The Ki [4] was > 10 µM (inactive), the Ki [5] was 631 nM (active) and the Ki [6] was > 10 µM (inactive). For the same compound, the Ki [7] was > 6.31 µM (inactive).

With `Oc1ccccc1-c1nc(/C=C/c2ccc(Cl)cc2)no1` the IC50 [8] was 1.44 µM (active), the IC50 (Caspase-3 [9]) was 1.57 µM (active) and the IC50 [10] was 1.4 µM (active). The IC50 [11] was 1.5 µM (active), the IC50 [12] was > 99 µM (inactive) and the IC50 (Caspase-3 [13]) was 3.7 µM (active). The IC50 [14] was > 99 µM (inactive) and the IC50 [15] was 2.08 µM (active).

In the case of `COCCNC(=O)CSc1nc2ccccc2c(=O)[nH]1`, the CC50 [16] is reported as > 100 µM (active).

With `CC1=NN(c2ccc(C(=O)O)cc2)C(=O)C1=Cc1c(C)cc2nc3ccccc3n2c1O` the Ki [17] was 6.31 µM (active), the Ki [18] was 1.58 µM (active) and the Ki [19] was 5.01 µM (active).

For `Cc1ccc2c(=O)[nH]cnc2c1`, the Ki [20] was 15.8 µM (active), the Ki [21] was 7.94 µM (active) and the Ki [22] was 5.01 µM (active).

For `CCCCCCCCCCCCC/C=C/[C@@H](O)[C@@H](N)CO` [SPHINGOSINE], the IC50 [23] was 6.2 µM (active), the EC50 [24] was 1.52 µM (active) and the IC50 (Apelin receptor) was > 66.6 µM (inactive). The IC50 [25] was 6.42 µM (active), the IC50 [26] was 20.9 µM (inactive) and the AC50 [27] was 35.5 µM (inconclusive). The EC50 (Streptococcus) was 8.1 µM (active), the EC50 (Streptokinase A) was > 150 µM (not active) and the IC50 (Bcl-2-related protein A1) was > 20 µM (inactive). For the same compound, the IC50 [28] was 32.5 µM (inactive).
